Measured values reported in article PMC6213796, “Purification and Identification of Angiotensin I-Converting Enzyme Inhibitory Peptides and the Antihypertensive Effect of Chlorella sorokiniana Protein Hydrolysates” (Nutrients, 2018).
Where two headings read alike, the source gives them in different places. Residues, ends and D or L forms follow the SMILES beside them.

Assays:
ACE = conditions: cited from earlier work
[1] = target: angiotensin I-converting enzyme (ACE) of rabbit lung (rabbit) (UniProt P12822)
[2] = target: angiotensin I-converting enzyme (ACE) of rabbit lung (rabbit) (UniProt P12822); remark: listed apart in the source
SHRs = conditions: tube feeding, after 2 to 4 h, compared with captopril at the same dose; cited from earlier work
Rabbit lung ACE = target: T1, Rabbit lung ACE (Oryctolagus cuniculus, UniProt P12822); test: In vitro assay for ACE-inhibitory activity (HHL substrate, RP-HPLC of hippuric acid); type: biochemical; conditions: for ACE Inhibitory (%): RP-HPLC peaks of fraction F of PN-1G, at peptide content 0.01-0.03 mg/mL
T1 construct: ACE of rabbit lung, and other chemicals of analytical grade were obtained from Sigma Chemical Co; purchased Sigma Chemical Co. (St. Louis, MO, USA); host or cells: rabbit lung tissue
T1 sequence (P12822 34-1310): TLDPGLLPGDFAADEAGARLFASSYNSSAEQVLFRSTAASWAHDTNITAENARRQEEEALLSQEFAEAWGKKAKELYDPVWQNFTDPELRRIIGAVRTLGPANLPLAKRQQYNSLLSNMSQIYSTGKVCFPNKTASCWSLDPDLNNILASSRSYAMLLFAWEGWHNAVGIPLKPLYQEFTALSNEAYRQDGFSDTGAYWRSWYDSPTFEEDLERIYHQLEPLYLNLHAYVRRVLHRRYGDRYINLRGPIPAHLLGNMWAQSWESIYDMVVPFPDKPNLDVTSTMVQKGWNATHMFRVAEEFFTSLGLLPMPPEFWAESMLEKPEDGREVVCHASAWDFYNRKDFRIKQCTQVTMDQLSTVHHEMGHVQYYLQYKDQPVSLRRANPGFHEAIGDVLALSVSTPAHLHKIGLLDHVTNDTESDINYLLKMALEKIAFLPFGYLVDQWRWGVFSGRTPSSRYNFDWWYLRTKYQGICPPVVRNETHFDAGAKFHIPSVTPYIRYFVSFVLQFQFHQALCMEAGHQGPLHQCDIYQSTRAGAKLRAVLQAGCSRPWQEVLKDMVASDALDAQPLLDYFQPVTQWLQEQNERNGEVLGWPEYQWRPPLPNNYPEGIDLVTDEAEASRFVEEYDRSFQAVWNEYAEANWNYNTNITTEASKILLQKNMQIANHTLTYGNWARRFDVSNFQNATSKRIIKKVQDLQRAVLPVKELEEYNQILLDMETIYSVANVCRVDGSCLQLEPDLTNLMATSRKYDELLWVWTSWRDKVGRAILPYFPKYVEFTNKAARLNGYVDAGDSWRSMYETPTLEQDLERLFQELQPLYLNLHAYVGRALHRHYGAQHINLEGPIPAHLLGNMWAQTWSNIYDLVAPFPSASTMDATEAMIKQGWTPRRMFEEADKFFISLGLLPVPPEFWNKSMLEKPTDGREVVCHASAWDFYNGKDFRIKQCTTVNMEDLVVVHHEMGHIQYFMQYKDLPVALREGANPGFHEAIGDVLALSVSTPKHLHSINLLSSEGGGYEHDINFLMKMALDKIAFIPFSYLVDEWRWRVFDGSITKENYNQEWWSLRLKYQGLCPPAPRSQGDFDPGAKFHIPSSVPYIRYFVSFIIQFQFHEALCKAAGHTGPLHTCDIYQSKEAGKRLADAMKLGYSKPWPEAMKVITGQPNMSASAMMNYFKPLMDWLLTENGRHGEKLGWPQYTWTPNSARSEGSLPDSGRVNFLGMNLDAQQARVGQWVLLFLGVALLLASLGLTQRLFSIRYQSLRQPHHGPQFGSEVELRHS
Description: In brief, 15 mM HHL was dissolved in 100 mM Na-borate buffer (pH 8.3) supplemented with 300 mM NaCl. […] A mixture containing 75 μL of ACE solution and 75 μL of the sample with a 5000-Da MWCO membrane (Millipore, Burlington, MA, USA) was incubated at 37 °C for 10 min, to which was added 75 μL of HHL solution, and the mixture was incubated for a further 30 min. […] Finally, inhibition activity was calculated using the following formula.Inhibition activity (%) = [(Ec - Es)/(Ec - Eb)] × 100 where Ec is the absorbance with addition of the buffer instead of the test sample (control), Es is the absorbance when the sample was added to the reaction mixture (sample), and Eb is the absorbance when the stop solution was added before the reaction occurred (blank). […] All data presented in this paper are the average of three repeats or mean ± standard deviation (SD).

[3] = ACE-inhibitory peptides from pepsin hydrolysate of Porphyra yezoensis, read-out: IC50
[4] = peaks F7 to F10, converted from μM, read-out: IC50 (equivalent in mg/mL) (converted)
[5] = peptides of peaks F7 to F10 from PN-1G, read-out: IC50

In the case of “Ala-Lys-Tyr-Ser-Tyr (AKYSY; printed: Ala-Lys-Tyr-Ser-Tyr)”, the IC50 (ACE; [3]) is listed as 1.52 µM.

Val-Trp (peptide) gave an ACE Inhibitory (%) of peak F8 at peptide content 0.01 mg/mL [1] of 86.1% and an IC50 of inhibition of ACE activity (hydrolysis of HHL to hippuric acid, RP-HPLC, 37 °C, pH 8.3) [2] of 0.58 μM.

In the case of Phe–Ala–Leu, the IC50 (ACE; peptide from pepsin hydrolysate of C. vulgaris, read-out: IC50) is given as 26.3 µM.

In the case of Ile-Gln-Pro, the IC50 (ACE; peptide from Alcalase hydrolysate, read-out: IC50) is listed as 5.77 µM and the blood pressure-lowering effect (SHRs) is listed as “same blood pressure-lowering effect as captopril”.

For `CC(C)[C@H](NC(=O)[C@@H](N)Cc1c[nH]c2ccccc12)C(=O)O` [Peak F7, Trp–Val] (H-Trp-Val-OH), the “ACE Inhibitory (%)” value (Rabbit lung ACE) was 54.3%, the IC50 (Rabbit lung ACE; [4]) was 308 µM and the IC50 (Rabbit lung ACE; [5]) was 307.61 ± 0.01 µM.

In the case of Met-Lys-Tyr, the IC50 (ACE; [3]) is given as 7.26 µM.

In the case of Leu-Arg-Tyr, the IC50 (ACE; [3]) is given as 5.06 µM.

In the case of `CC(C)[C@H](N)C(=O)N[C@@H](Cc1c[nH]c2ccccc12)C(=O)O` [Peak F8, Val–Trp] (H-Val-Trp-OH), the IC50 (Rabbit lung ACE; IC50 (equivalent in mg/mL), peaks F7 to F10, converted from μM) is reported as 0.593 µM, the IC50 (Rabbit lung ACE; IC50, peptides of peaks F7 to F10 from PN-1G) is reported as 0.58 ± 0.02 µM and the “ACE Inhibitory (%)” value (Rabbit lung ACE) is reported as 86.1%.

For Trp-Val (peptide), the ACE Inhibitory (%) of peak F7 at peptide content 0.01 mg/mL [1] was 54.3% and the IC50 of inhibition of ACE activity (hydrolysis of HHL to hippuric acid, RP-HPLC, 37 °C, pH 8.3) [2] was 308 μM.

Ile-Trp (peptide) gave an ACE Inhibitory (%) of peak F9 at peptide content 0.01 mg/mL [1] of 95.1% and an IC50 of inhibition of ACE activity (hydrolysis of HHL to hippuric acid, RP-HPLC, 37 °C, pH 8.3) [2] of 0.5 μM.

In the case of Ile-Tyr, the IC50 (ACE; [3]) is listed as 2.69 µM.

Compound Leu-Trp (peptide) has an ACE Inhibitory (%) of peak F10 at peptide content 0.01 mg/mL [1] of 87.7% and an IC50 of inhibition of ACE activity (hydrolysis of HHL to hippuric acid, RP-HPLC, 37 °C, pH 8.3) [2] of 1.11 μM.

For “VRYL (UniProt P04654 220-223, looked up, fragment)”, the IC50 (ACE; before hydrolysis with digestive enzymes) is given as 9 µg/mL.

In the case of `CC[C@H](C)[C@H](N)C(=O)N[C@@H](Cc1c[nH]c2ccccc12)C(=O)O` [Peak F9, Ile–Trp], the “ACE Inhibitory (%)” value (Rabbit lung ACE) is reported as 95.1%, the IC50 (Rabbit lung ACE; [4]) is reported as 0.504 µM and the IC50 (Rabbit lung ACE; [5]) is reported as 0.5 ± 0.01 µM.
